Among the data in publication PMC6412119 (2019) are binding values, retold here.

The test concerns c-MYC Pu22-G10>T10 (DNA, G4) TGAGGGTGGTTAGGGTGGGTAA
Description: fluorescence light-up. The following applies: 100 mM KCl; 10 mM potassium phosphate pH 7.0; 0.5 μM each; weak response.

On to `C(=NNc1nc(Nc2ccccc2)nc(Nc2ccccc2)n1)c1c2ccccc2cc2ccccc12`, for which the binding entry is “weak”.
